Like-named read-outs stand apart in the source and are kept apart here.
Tests used:
[1] = system: A2780 (ovarian cancer) cell lines, A2780-P and A2780-CR; assay: Antiproliferative activity in A2780 ovarian cancer cell lines; format: cell-based; conditions: cisplatin resistant A2780-CR versus parental A2780-P; FIG. 1A/1B
Protocol: (§1) Data shown are mean cell viability±standard error of the mean (SEM), n=2-3 and are representative of duplicate independent experiments.
(§2) Representative of duplicate independent experiments; mean±SD shown.
(§3) The sensitivity of multiple solid tumor cancer cell lines to the antiproliferative activity of Compound 1 with and without cisplatin was evaluated. […] Combination treatment with Compound 1 and cisplatin, however, led to greater than 50% reduction in growth.

[2] = system: HT1376 (bladder cancer) cell lines, HT1376-DMF and HT1376-CR; assay: Antiproliferative activity in HT1376 bladder cancer cell lines; format: cell-based; conditions: cisplatin resistant HT1376-CR versus age-matched DMF control HT1376-DMF; FIG. 1A/1B
Protocol: as §1, §2, §3

[3] = target: EZH1-containing PRC2 complex (Homo sapiens, UniProt Q92800); conditions: see PCT/US2019/027932, read-out: half-maximal inhibitory concentration (IC50), catalytic activity; cited from earlier work
EZH2 (PRC2) [4] = target: T1, EZH2 (PRC2) (Homo sapiens, UniProt Q15910); conditions: binding to PRC2 complex, see PCT/US2019/027932, cited from earlier work
[5] = system: H3K27me3 in HT1197 bladder cancer cell line; assay: Global H3K27me3 intracellular levels, HT1197; format: cell-based; conditions: Homo sapiens, 72 h; HT1197, Day 3; read-out: EC50, reduction of global H3K27me3 levels
HT1376 tumors = assay: Antitumor effect in HT1376 tumors; format: in vivo; conditions: HT1376 tumors in CB17 SCID mice; FIG. 4
Text: FIG. 4 illustrates the antitumor effect of Compound 1, cisplatin, and the combination of both in HT1376 tumors in CB17 SCID mice. Data shown are mean tumor size±SEM, n=6. PO=oral administration, IV=intravenous administration, QD=once per day, QW=once per week.

[6] = system: H3K27me3 in HeLa (wild-type EZH2-containing cervical cancer cell line); conditions: after 4 days of treatment, see PCT/US2019/027932, read-out: EC50, reduction of global H3K27me3 levels; cited from earlier work
[7] = system: H3K27me3 in ovarian cancer TOV21G cell line; assay: Global H3K27me3 intracellular levels, TOV21G; format: cell-based; conditions: Homo sapiens, 72 h, Day 3, read-out: EC50, reduction of global H3K27me3 levels
[8] = system: H3K27me3 in 639V bladder cancer cell line; assay: Global H3K27me3 intracellular levels, 639V; format: cell-based; conditions: Homo sapiens, 72 h, Day 3, read-out: EC50, reduction of global H3K27me3 levels
[9] = target: Y641N mutant EZH2-containing PRC2 complex (Homo sapiens, UniProt Q15910, Y641N); conditions: see PCT/US2019/027932, read-out: half-maximal inhibitory concentration (IC50), catalytic activity; cited from earlier work
[10] = system: gene expression in bladder cancer cell lines; assay: RNA-sequencing of bladder cancer cell lines; format: cell-based; conditions: treatment for 4 days
Text: Reduction in H3K27me3 levels result in changes in gene expression. RNA-sequencing of bladder cancer cell lines after treatment with Compound 1 for 4 days results in significant changes in the expression levels of multiple genes. […] The increase in gene expression is both dose and time dependent, with increasing expression observed at higher concentrations of Compound 1 and at later timepoints. This contrasts with reductions of H3K27me3 as methyl mark changes were observed after 1 day of Compound 1 treatment. […] See Yang X, Karuturi R K, Sun F, et al. CDKN1C (p57) is a direct target of EZH2 and suppressed by multiple epigenetic mechanisms in breast cancer cells. PLoS One. 2009; 4(4):e5011. Low expression of CDKN1C is seen in advanced bladder and breast cancers and is correlated with poor prognosis. See Yang above and Hoffmann M J, Florl A R, Seifert H H, et al. Multiple mechanisms downregulate CDKN1C in human bladder cancer. Int J Cancer. 2005 Apr. 10; 114(3):406-13.

[11] = target: wild-type EZH2-containing PRC2 complex (Homo sapiens, UniProt Q15910); conditions: see PCT/US2019/027932, read-out: half-maximal inhibitory concentration (IC50), catalytic activity; cited from earlier work
EZH2 (PRC2) [12] = target: T1, EZH2 (PRC2); assay: Kinetic assays characterising binding to PRC2; conditions: from kinetic assays
Protocol: In biochemical assays, Compound 1 suppresses catalytic activity of wild-type and Y641N mutant EZH2-containing PRC2 complex, as well as EZH1-containing PRC2 complex, with half-maximal inhibitory concentrations (IC50) values of 0.02 and 0.03 nM for wild-type and Y641N mutant EZH2, respectively, and 0.06 nM for EZH1. See e.g., PCT/US2019/027932. […] Based-upon the kinetic analysis it was determined that Compound 1 binds to PRC2 with a long residence time (approximately 101 days). See e.g., PCT/US2019/027932.

T1 sequence (Q15910 whole entry): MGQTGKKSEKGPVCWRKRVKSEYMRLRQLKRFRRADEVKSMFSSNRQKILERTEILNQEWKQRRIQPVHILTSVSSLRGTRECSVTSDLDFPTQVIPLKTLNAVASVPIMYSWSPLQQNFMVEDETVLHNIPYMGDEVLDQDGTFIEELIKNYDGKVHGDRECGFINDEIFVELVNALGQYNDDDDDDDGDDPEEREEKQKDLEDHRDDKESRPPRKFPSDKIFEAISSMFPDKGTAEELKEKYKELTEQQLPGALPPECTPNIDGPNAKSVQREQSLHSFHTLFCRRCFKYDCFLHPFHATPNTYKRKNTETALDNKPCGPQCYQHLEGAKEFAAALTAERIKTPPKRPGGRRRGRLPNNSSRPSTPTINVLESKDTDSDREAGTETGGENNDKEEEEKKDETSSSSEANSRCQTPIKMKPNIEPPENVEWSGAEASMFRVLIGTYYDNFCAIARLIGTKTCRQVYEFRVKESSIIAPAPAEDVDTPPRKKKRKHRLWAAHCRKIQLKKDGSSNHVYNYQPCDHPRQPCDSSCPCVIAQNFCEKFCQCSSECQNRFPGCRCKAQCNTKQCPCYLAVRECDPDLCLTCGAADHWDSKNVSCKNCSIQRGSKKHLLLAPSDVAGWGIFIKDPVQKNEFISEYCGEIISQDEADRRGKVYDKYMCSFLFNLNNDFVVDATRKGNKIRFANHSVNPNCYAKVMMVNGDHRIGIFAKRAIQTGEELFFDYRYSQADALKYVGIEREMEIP
T1 sequence (O75530 whole entry partner): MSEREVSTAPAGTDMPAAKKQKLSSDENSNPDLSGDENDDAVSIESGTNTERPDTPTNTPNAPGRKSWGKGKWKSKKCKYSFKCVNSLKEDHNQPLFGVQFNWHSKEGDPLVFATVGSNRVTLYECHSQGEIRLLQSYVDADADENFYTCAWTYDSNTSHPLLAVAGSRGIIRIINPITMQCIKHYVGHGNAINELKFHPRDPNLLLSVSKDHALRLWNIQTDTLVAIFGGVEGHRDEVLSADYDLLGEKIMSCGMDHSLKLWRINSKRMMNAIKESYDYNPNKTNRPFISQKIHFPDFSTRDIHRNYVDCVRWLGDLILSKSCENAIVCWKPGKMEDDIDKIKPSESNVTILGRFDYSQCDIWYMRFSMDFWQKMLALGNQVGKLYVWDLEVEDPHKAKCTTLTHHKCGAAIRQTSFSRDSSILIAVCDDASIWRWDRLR
T1 sequence (Q15022 whole entry partner): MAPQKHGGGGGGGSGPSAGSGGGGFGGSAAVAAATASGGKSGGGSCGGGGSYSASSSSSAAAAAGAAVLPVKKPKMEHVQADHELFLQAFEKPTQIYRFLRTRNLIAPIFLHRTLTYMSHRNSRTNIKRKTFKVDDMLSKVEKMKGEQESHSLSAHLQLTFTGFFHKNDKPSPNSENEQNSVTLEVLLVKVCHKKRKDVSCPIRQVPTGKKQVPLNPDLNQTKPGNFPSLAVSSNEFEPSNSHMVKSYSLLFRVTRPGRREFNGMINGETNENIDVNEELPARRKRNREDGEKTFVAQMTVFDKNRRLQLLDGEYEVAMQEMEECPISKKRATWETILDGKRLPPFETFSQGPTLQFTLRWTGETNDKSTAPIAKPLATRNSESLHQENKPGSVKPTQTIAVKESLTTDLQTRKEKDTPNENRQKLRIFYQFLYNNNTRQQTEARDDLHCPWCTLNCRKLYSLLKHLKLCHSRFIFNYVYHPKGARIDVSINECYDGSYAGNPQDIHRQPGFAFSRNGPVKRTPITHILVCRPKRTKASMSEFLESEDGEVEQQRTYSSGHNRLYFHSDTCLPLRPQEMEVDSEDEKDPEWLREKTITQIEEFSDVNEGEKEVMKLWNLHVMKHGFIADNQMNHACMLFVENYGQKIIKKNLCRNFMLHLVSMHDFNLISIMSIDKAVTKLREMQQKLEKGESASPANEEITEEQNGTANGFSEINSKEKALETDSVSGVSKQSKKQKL
T1 sequence (Q09028 whole entry partner): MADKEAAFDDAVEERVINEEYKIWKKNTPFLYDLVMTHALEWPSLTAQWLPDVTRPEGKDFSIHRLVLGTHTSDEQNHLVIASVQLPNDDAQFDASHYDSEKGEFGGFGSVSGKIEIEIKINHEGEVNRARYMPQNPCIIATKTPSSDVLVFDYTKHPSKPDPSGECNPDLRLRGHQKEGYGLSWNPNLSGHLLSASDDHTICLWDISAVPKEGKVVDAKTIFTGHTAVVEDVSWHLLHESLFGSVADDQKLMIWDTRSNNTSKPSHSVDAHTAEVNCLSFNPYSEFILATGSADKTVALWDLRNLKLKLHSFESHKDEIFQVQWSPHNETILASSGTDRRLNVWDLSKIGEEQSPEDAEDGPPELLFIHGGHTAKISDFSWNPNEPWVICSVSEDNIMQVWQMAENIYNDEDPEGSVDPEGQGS
Sequence of EZH1-containing PRC2 complex (Q92800 whole entry): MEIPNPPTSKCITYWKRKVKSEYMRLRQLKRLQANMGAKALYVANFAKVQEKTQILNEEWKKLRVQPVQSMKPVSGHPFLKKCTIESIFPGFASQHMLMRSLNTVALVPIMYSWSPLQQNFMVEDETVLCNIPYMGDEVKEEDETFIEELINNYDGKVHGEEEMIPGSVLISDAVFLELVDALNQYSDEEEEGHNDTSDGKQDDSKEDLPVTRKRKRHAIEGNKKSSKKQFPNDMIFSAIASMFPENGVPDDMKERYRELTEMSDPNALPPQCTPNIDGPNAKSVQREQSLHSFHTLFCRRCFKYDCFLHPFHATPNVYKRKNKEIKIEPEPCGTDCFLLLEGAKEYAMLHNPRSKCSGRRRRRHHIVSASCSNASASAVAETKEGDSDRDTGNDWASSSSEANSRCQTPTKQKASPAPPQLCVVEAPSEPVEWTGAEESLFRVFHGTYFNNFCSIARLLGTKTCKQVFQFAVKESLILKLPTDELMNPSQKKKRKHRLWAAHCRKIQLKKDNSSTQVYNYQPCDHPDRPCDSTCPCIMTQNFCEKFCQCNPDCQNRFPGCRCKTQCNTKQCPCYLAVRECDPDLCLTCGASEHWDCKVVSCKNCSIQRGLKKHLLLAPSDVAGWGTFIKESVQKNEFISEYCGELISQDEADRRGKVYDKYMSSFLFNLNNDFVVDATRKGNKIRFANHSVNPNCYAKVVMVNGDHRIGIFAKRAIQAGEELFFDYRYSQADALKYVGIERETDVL
Sequence of EZH1-containing PRC2 complex (O75530 whole entry partner): as the sequence (O75530 whole entry partner) above
Sequence of EZH1-containing PRC2 complex (Q15022 whole entry partner): as the sequence (Q15022 whole entry partner) above
Sequence of EZH1-containing PRC2 complex (Q09028 whole entry partner): as the sequence (Q09028 whole entry partner) above
Sequence of Y641N mutant EZH2-containing PRC2 complex (Q15910 whole entry Y641N): as the sequence (Q15910 whole entry) above, with Y641N counted along it
Sequence of Y641N mutant EZH2-containing PRC2 complex (O75530 whole entry partner): as the sequence (O75530 whole entry partner) above
Sequence of Y641N mutant EZH2-containing PRC2 complex (Q15022 whole entry partner): as the sequence (Q15022 whole entry partner) above
Sequence of Y641N mutant EZH2-containing PRC2 complex (Q09028 whole entry partner): as the sequence (Q09028 whole entry partner) above
Sequence of wild-type EZH2-containing PRC2 complex (Q15910 whole entry): as the sequence (Q15910 whole entry) above
Sequence of wild-type EZH2-containing PRC2 complex (O75530 whole entry partner): as the sequence (O75530 whole entry partner) above
Sequence of wild-type EZH2-containing PRC2 complex (Q15022 whole entry partner): as the sequence (Q15022 whole entry partner) above
Sequence of wild-type EZH2-containing PRC2 complex (Q09028 whole entry partner): as the sequence (Q09028 whole entry partner) above

Row | Structure (SMILES) | sensitivity (cell viability) to single treatment [1] | sensitivity (cell viability) to single treatment [2] | IC50 [3] | residence time (EZH2 (PRC2) [4]) | residence time (EZH2 (PRC2) [4]; listed as 7-chloro-2-(4-(3-methoxyazetidin-1-yl)cyclohexyl)-2,4-dimethyl-N-(6-methyl-4-(m))) | EC50 [5] | tumor growth (HT1376 tumors) | EC50 [6] | EC50 [7] | EC50 [8] | IC50 [9] | CDKN1C (p57, Kip2) gene expression [10] | IC50 [11] | selectivity for EZH2 over EZH1 (EZH2 (PRC2) [12])
1 | N.N.[Cl][Pt][Cl] [cisplatin, reference compound] | less sensitive | less sensitive |  |  |  |  |  |  |  |  |  |  |  | 
2 | COC1CN(C2CCC(C3(C)Oc4c(Cl)cc(C(=O)NCc5c(SC)cc(C)[nH]c5=O)c(C)c4O3)CC2)C1 (single isomer, unassigned) [Compound 1, 7-chloro-2-(4-(3-methoxyazetidin-1-yl)cyclohexyl)-2,4-dimethyl-N-((6-methyl-4-(methylthio)-2-oxo-1,2-dihydropyridin-3-yl)methyl)benzo[d][1,3]dioxole-5-carboxamide] | strongly sensitive | strongly sensitive | 0.06 nM | approximately 101 days | ~101 days | 0.14 nM | effective in reducing tumor growth | 0.4 nM | 0.26 nM | 0.09 nM | 0.03 nM | highly upregulated | 0.02 nM | approximately 70 fold

Reference: patent US20220257577A1, “EZH2 INHIBITION IN COMBINATION THERAPIES FOR THE TREATMENT OF CANCERS” (Constellation Pharmaceuticals, Inc., priority 2019, published 2022)
